Columns and labels:
Mus musculus = assay: Intravenous administration of dose required to prevent clonic seizures and tonic extension seizure of forelimbs and hindlimbs; type: functional; details: Hindlimb
Rattus norvegicus [1] = organism: Rattus norvegicus; assay: Intrathecal bolus injection of 12.5-100 microg of dose resulting in 50% reduction in the amount of foot withdraw responding to repeated mechanical stimuli
[2] = Intravenous administration of dose resulting in 50% reduction in the number of writhes in male CF-1 mice.; type: functional; details: Mus musculus
[3] = Electrophysiology tested by the voltage clamp assay using superior cervical ganglion sodium neuron (SCGNa); type: functional, tissue-based; details: Rattus norvegicus
[4] = Electrophysiology tested by the voltage clamp assay using superior cervical ganglion potassium neuron (SCGK); type: functional, tissue-based; details: Rattus norvegicus
[5] = Electrophysiology tested by the voltage clamp assay using superior cervical ganglion calcium neuron (SCGCa); type: functional, tissue-based; details: Rattus norvegicus
Rattus norvegicus [6] = assay: Oral administration of dose resulting in 50% reduction in the number of flinches per minute
Rattus norvegicus [7] = assay: Dose given at 15 and 30 mg/kg over 10 min resulting in 50% reduction in the number of flinches per minute when administarted intravenously.; details: iv
[8] = target: Voltage-gated L-type calcium channel (Rattus norvegicus, UniProt P22002+Q02485+P27732); assay: L-type calcium channel blockade in A10 smooth muscle cells by Oregon Green 488 Bapta-1 dye; type: functional, cell-based

IC50 [3]: 5.1 µM
IC50 [4]: 9.9 µM
IC50 [5]: 1.3 µM
IC50 [8]: 0.4 µM
SMILES: CN[C@@H](CC(C)C)C(=O)NCCCC(c1ccc(F)cc1)c1ccc(F)cc1.Cl
ED50 (Mus musculus): 4.05 mg/kg
ED50 (Rattus norvegicus [1]): 23 µg
ED50 [2]: 4.46 mg/kg
ED50 (Rattus norvegicus [6]): 87 mg/kg
ED50 (Rattus norvegicus [7]): 16 mg/kg
